In patent US12661338B2, “Heterocyclic compounds as modulators of beta-catenin / TCF4 interaction” (AGENCY FOR SCIENCE, TECHNOLOGY AND RESEARCH, priority 2019, dated 2026):
Read-outs that look alike come from different tables or passages of the source.

Legend:
Type in all cases: cell-based
STF3A cells = test: Viability (toxicity) of STF3A reporter cells, CCK-8; conditions: Table 3; STF3A reporter cell line
Protocol: (§1) The Wnt STF3A reporter cells were seeded as 20,000 cells in 100 μL culture medium per well in 96-well plates (Corning cat. #3903, Falcon cat. #353072). The next day, 5-fold dilutions of the compounds in DMSO were added to the cells at a final concentration of 1% DMSO. After 24 hr incubation, the viability of the cells was determined with cell counting kit-8 (CCK-8, Dojindo cat. #CK04) cell viability reagent according to the manufacturer's protocol while the TOPFlash reporter activity was determined with Steady-Glo luciferase reagent.
(§2) The average signal from DMSO treated wells was calculated for each plate, and the signal from each treatment well was normalized against the average DMSO signal from the respective plate. The normalized values were plotted against the concentrations tested using GraphPad Prism 5, and the EC50 values were determined through either three- or four-parameter nonlinear regression.

[1] = tested on: Wnt signalling (TOPFlash reporter, STF3A cells); test: Wnt STF3A TOPFlash reporter dose response (constitutive Wnt3A)
Protocol: (§3) Wnt STF reporter cells (HEK 293 cells stably transfected with TOPFlash reporter) and STF3A reporter cells (STF cells with constitutive secretion of Wnt3A) were kind gifts from David Virshup (Duke-NUS Graduate Medical School, Singapore). HCT116, DLD-1, and SW480 cell lines were obtained from ATCC. The Hippo pathway TEAD reporter (cat. #60618) and Myc signalling pathway reporter (cat. #60520) cells lines were purchased from BPS Bioscience, Inc.
as §1, §2

[2] = tested on: Wnt signalling (TOPFlash reporter, STF cells); test: Wnt STF TOPFlash reporter dose response (Wnt3A-stimulated)
Protocol: as §3
as §1, with “STF” for “STF3A”, “DMSO. The cells were also stimulated with 500 ng/mL recombinant human Wnt3A (RnD systems, cat. #5036-WN-010).” for “DMSO.”
as §2

STF cells = test: Viability (toxicity) of STF reporter cells, CCK-8; conditions: Table 3; STF reporter cell line
Protocol: as §1, with “STF” for “STF3A”, “DMSO. The cells were also stimulated with 500 ng/mL recombinant human Wnt3A (RnD systems, cat. #5036-WN-010).” for “DMSO.”
as §2

[3] = tested on: Wnt target genes in HCT116 CRC cells; test: Expression of beta-catenin (CTNNB1) and Wnt target genes in HCT116 CRC cells
Protocol: The effects of the GB1874 analogues were tested on the expression of Wnt target genes in HCT116 CRC cells.

HCT116 cells [4] = test: Proliferation assay (CellTiter-Glo); conditions: 10 μM daily
Protocol: HCT 116 cells were seeded as 3,000 cells in 100 μL growth medium per well in 96-well plates (Corning cat. #3903) and allowed to attached overnight. Cells were then treated continuously with compounds at a final concentration of 10 μM, 0.1% DMSO, for 4 days with daily medium change. Cell proliferation each day was determined using CellTiter-Glo luminescent cell viability assay (Promega cat. #G7573) according to the manufacturer's protocol.

CRC1463 = test: Viability of primary patient-derived colorectal cancer cell line
CRC1707 = test: as above
CRC2413 = test: as above
CRC1850 = test: as above; conditions: CRC1850, Liver Met
CRC1775 = test: as above
CRC1414 = test: as above
CRC1846 = test: as above
CRC1837 = test: as above; conditions: CRC1837, Liver Met
CRC1177 = test: as above
CRC1258 = test: as above; conditions: CRC1258, Liver Met
CRC2423 = test: as above
CRC1489 = test: as above
CRC1671 = test: as above
CRC2001 = test: as above
CRC948 = test: as above
CRC2367 = test: as above
CRC2255 = test: as above
CRC2440 = test: as above
SW480 cells = test: Dose response viability of CRC cells (CellTiter-Glo); conditions: Homo sapiens, 24 hr
Protocol: (§4) HCT116, DLD-1, and SW480 cells were seeded as 5,000 cells in 100 μL growth medium per well in 96-well plates (Corning cat. #3903). The next day, 5-fold dilutions of the compounds in DMSO were added to the cells at a final concentration of 1% DMSO. After 24 hr incubation, the viability of the cells was determined with CellTiter-Glo luminescent cell viability reagent (Promega cat. #G7573) according to the manufacturer's protocol.
as §2

HCT116 cells [5] = test: as above; conditions: Homo sapiens, HCT-116, 24 hr
Protocol: as §4, §2

DLD-1 cells = test: as above; conditions: Homo sapiens, 24 hr
Protocol: as §4, §2

[6] = tested on: Myc reporter (Luc)-HCT116 cells; test: Myc signalling reporter dose response; conditions: Homo sapiens, HCT-116, 24 hr
Protocol: (§5) The Myc reporter (Luc)-HCT116 cells were seeded as 25,000 cells in 100 μL assay medium per well in 96-well plates (Corning cat. #3903, Falcon cat. #353072). The assay medium consists of the growth medium without G-418. The next day, 4-fold dilutions of the compounds in DMSO were added to the cells at a final concentration of 1% DMSO. After 24 hr incubation, the viability of the cells was determined with PrestoBlue cell viability reagent while the luciferase reporter activity was determined with Steady-Glo luciferase reagent.
as §2

[7] = tested on: Hippo pathway TEAD reporter cells; test: Hippo signalling TEAD reporter dose response; conditions: 24 hr, activation of the Hippo pathway (decrease of reporter signal)
Protocol: as §5, with “Hippo TEAD” for “Myc”, “reporter” for “reporter (Luc)-HCT116”, “100,000” for “25,000”, “5-fold” for “4-fold”, “CCK-8” for “PrestoBlue”
as §2

[8] = Table 3, STF3A reporter cell line, read-out: STF3A Inhibition IC50
[9] = Table 3, STF reporter cell line, read-out: STF Inhibition IC50

Row | SMILES | IC50 (STF3A cells) [µM] | IC50 [1, 8] [µM] | IC50 [2, 9] [µM] | IC50 (STF cells) [µM] | beta-catenin (CTNNB1) gene expression [3] | expression of Wnt target genes AXIN2, BIRC5, BMP4, CCND1 [3] | other results
1 | Cc1ccccc1OCc1nnc(SCCSc2nnc(COc3ccccc3C)n2Cc2ccccc2)n1Cc1ccccc1 [GB1874A] | > 100 | 1.2 | 28 | > 100 |  |  | 
2 | O=C(CSc1nnc(Cc2ccccc2)n1Cc1ccco1)NC1CCCC1 [GB1874B] | > 100 | > 100 | 48 | > 100 |  |  | 
3 | CC1CCCC(C)N1C(=O)CSc1nnc(COc2ccccc2)n1Cc1ccccc1 (stereo not drawn) [GB1874C] | 78 | 46 | 7.6 | 76 | lesser effect | potently inhibit Wnt target genes | 
4 | CCOc1ccc(C(=O)CSc2nnc(COc3ccccc3)n2Cc2ccccc2)cc1 [GB1874D] | 25 | 21 | 21 | > 100 |  |  | 
5 | CCOC(=O)C(C)(C)Sc1nnc(COc2ccccc2)n1Cc1ccccc1 [GB1874E] | 100 | 16 | 12 | 71 | lesser effect | potently inhibit Wnt target genes | 
6 | Cc1ccc(OCc2nnc(SCC(=O)c3ccc(-c4ccccc4)cc3)n2Cc2ccco2)cc1 [GB1874F] | > 100 | 10 | 5.4 | 100 | lesser effect | potently inhibit Wnt target genes | IC50 ([2]; unit M, read-out: STF IC50): 5.4 µM
7 | CCc1ccc(OCc2nnc(SC(C)C(=O)C3C4CC5CC(C4)CC3C5)n2Cc2ccccc2)cc1 (stereo not drawn) [GB1874G] | > 100 | 6.7 | 3.9 | > 100 | lesser effect | potently inhibit Wnt target genes | IC50 ([2]; unit M, read-out: STF IC50): 3.9 µM
8 | CCc1ccc(OCc2nnc(SC3CCCCC3=O)n2C(C)c2ccccc2)cc1 (stereo not drawn) [GB1874H] | 46 | 11 | 5 | 49 | lesser effect | potently inhibit Wnt target genes | 
9 | Cc1ccc2nc(NC(=O)CSc3nc4c(c(=O)n3-c3ccccc3)SCC4)sc2c1 [IWP-2] |  |  |  |  |  |  | growth of HCT116 cells (HCT116 cells [4]): less effective at inhibiting the growth of HCT116 cells
10 | Oc1nc(-c2ccc(C(F)(F)F)cc2)nc2c1CSCC2 [XAV939, reference compound] |  |  |  |  |  |  | EC50 (CRC1463): 250 µM; EC50 (CRC1707): 135 µM; EC50 (CRC2413): 200 µM; EC50 (CRC1850): 208 µM; EC50 (CRC1775): > 250 µM; EC50 (CRC1414): > 250 µM; EC50 (CRC1846): 239 µM; EC50 (CRC1837): > 250 µM; EC50 (CRC1177): 250 µM; EC50 (CRC1258): 70 µM; EC50 (CRC2423): 250 µM; EC50 (CRC1489): 105 µM; EC50 (CRC1671): > 250 µM; EC50 (CRC2001): > 250 µM; EC50 (CRC948): > 250 µM; EC50 (CRC2367): > 250 µM; EC50 (CRC2255): > 250 µM; EC50 (CRC2440): 75 µM; growth of HCT116 cells (HCT116 cells [4]): less effective at inhibiting the growth of HCT116 cells
11 | CCc1ccc(-c2nc(CSCC(=O)NCCc3ccccc3)c(C)o2)cc1 [iCRT3, reference compound] | 74 | 42 | 11 | 88 | lesser effect | potently inhibit Wnt target genes | EC50 (SW480 cells): 64 µM; EC50 (HCT116 cells [5]): 39 µM; EC50 (DLD-1 cells): 48 µM; IC50 [6]: 50 µM; IC50 ([1]; Table 1, STF3A reporter cells, 24 hr, read-out: IC50 Wnt (STF3A)): 64 µM; IC50 ([2]; Table 1, STF reporter cells, 500 ng/mL Wnt3A, 24 hr, read-out: IC50 Wnt (STF)): 27 µM; IC50 Hippo (activation) [7]: activated; IC50 ([7]; read-out: IC50 Hippo (activation)): 1.6 µM
